From US9944597B2, “Polysubstituted pyrroles having microtubule-disrupting, cytotoxic and antitumor activities and methods of use thereof” (THE BOARD OF REGENTS OF THE UNIVERSITY OF TEXAS SYSTEM, priority 2013, dated 2018)
Like-named read-outs stand apart in the source and are kept apart here.

Assays:
[1] = system: MDA-MB-435 (human melanoma cancer cells); experiment: Antiproliferative SRB assay, MDA-MB-435; type: cell-based; details: read-out: MDA-MB-435 Anti-Proliferative Activity, IC50
Method: (§1) Cell Culture. Various representative cancer and other cell lines were sourced and grown as described previously [Mooberry, S. L., et al., Mol. Pharm. 72, 132-140 (2007)]. MDA-MB-435 (human melanoma cancer cells), and MDA-MB-231 (human breast cancer cells) were grown in IMEM Richter's Medium (Life Technologies, Grand Island, N.Y.) with 10% FBS (Hyclone, Logan, Utah) and 25 μg/mL gentamicin sulfate (Life Technologies). A-10 (embryonic rat vascular smooth muscle cells) and HeLa (human cervical cancer cells), SK-OV-3 (human ovarian cancer cells) and SK-OV-3-MDR-1-M6/6 (a clone of the SK-OV-3 that was generated from SK-OV-3 cells by adenovirus-mediated expression of MDR1) were grown in Basal Medium Eagle (BME, Sigma-Aldrich, St. Louis, Mo.) containing Earle's salts, 50 μg/ml gentamicin sulfate, and 10% FBS. HeLa cells (a single-cell clone derived from transduction of HeLa cells with wild-type (WT) βIII-tubulin) were grown in Dulbecco's Modified Eagle's Medium (DMEM, Life Technologies) containing 50 μg/mL gentamicin sulfate and 10% FBS.
(§2) Antiproliferative Effects. The pyrrole compounds were evaluated for their antiproliferative effects in a panel of cancer cell lines. Cells were plated into 96-well plates at predetermined densities and allowed to attach and proliferate for 24 hr, and then the compounds were added. After a 48 hr exposure to the compounds, the cells were fixed with trichloroacetic acid and cellular protein was determined using the sulforhodamine B (SRB) assay (Skehan et al., J. Natl. Cancer Inst. 82, 1107-12, (1990); Boyd and Paull Drug Devel. Res. 34, 91-109, (1995)). Concentration response curves were constructed, and the IC50 (the concentration required to inhibit proliferation by 50%) values were determined from the linear portions of the log concentration-response curves as described previously [Tinley, T. L., et al., Cancer Res. 63, 3211-3220, (2003)] as shown in Table 48.

[2] = system: HeLa (human cervical cancer cells); experiment: Antiproliferative SRB assay, HeLa; type: cell-based
Method: as §1, §2
(§3) First, drug resistance mediated by the expression of βIII tubulin was evaluated in an isogenic HeLa cell line pair. Expression of the βIII tubulin isotype is associated with clinical drug resistance to the taxanes in ovarian cancer, non small-cell lung cancer and breast cancer [Galmarini, C. M., et al., Clin. Cancer Res. 14, 4511-4516 (2008)]. Secondly, drug resistance mediated by the expression of the drug efflux pump protein, Pgp, was evaluated in the isogenic SK-OV-3 cell line pair. The expression of Pgp can lead to lower intracellular drug concentrations and diminished cytotoxic effects both in vitro and in vivo. All tubulin-binding anticancer drugs used currently in the clinic, except cabazitaxel, are substrates for Pgp, thus limiting their utility in drug resistant tumors [Penson, R. T., et al., Gynecol. Oncol. 93, 98-106 (2004)]. Differences in sensitivity between the parent and transformed cell line, indicative of resistance, was determined by calculating relative resistance (Rr) values in the two pairs of isogenic cell lines (dividing the IC50 of the expressing cell line by the IC50 of the parental cell line).

[3] = system: SK-OV-3 (human ovarian cancer cells); experiment: Antiproliferative SRB assay, SK-OV-3; type: cell-based
Method: as §1, §2
as §3, with “The expression of Pgp can lead to lower intracellular drug concentrations and diminished cytotoxic effects both in vitro and in vivo.” left out

HeLa WT-β-III cells = experiment: Antiproliferative SRB assay, βIII-tubulin expressing HeLa; type: cell-based, human; details: for IC50: Table 49, βIII tubulin expressing line, 48 hr, SRB assay; for Rr (β-III): relative resistance: IC50 of expressing line divided by IC50 of parental HeLa
Method: as §1, §2, §3

SK-OV-3-MDR-1-6/6 cells = experiment: Antiproliferative SRB assay, Pgp expressing SK-OV-3; type: cell-based, human; details: for IC50: Table 49, Pgp expressing line, 48 hr, SRB assay; for Rr (Pgp): relative resistance: IC50 of expressing line divided by IC50 of parental SK-OV-3
Method: as §1, §2
as §3, with “The expression of Pgp can lead to lower intracellular drug concentrations and diminished cytotoxic effects both in vitro and in vivo.” left out

A-10 cells = experiment: Cellular microtubule loss by indirect immunofluorescence; type: cell-based, rat; details: read-out: EC50 Values (nM) for Microtubule Loss in A-10 cells
Method: The effects of representative compounds on cellular microtubules were evaluated in A-10 (embryonic rat vascular smooth muscle cell line) cells using indirect immunofluorescence techniques as previously described (Tinley et al., Cancer Res. 63, 3211-20 (2003)). Cells were visualized using a Nikon Eclipse 80i fluorescence microscope and NIS Elements software. Changes in both interphase and mitotic microtubules were noted and photographed. The EC50 values, the concentration that causes approximately 50% loss of interphase microtubules was determined by evaluating a range of concentrations of each compound and the percent cellular microtubule depolymerization that was observed visually at each concentration was noted.
Microtubules were visualized by indirect immunofluorescence using a β-tubulin antibody, and the DNA was visualized with DAPI. A representative concentration response curve for NT-7-16 is also shown in FIG. 1 that was used to calculate its corresponding EC50 for microtubule loss. Concentration response curves for microtubule loss were plotted using data from at least three experiments for each compound and the corresponding EC50 values for microtubule loss are presented in Table 50.

[4] = target: T1, purified porcine brain tubulin (Sus scrofa, UniProt P02554); experiment: Inhibition of polymerization of purified tubulin (absorbance at 340 nm); type: biochemical
T1 construct: of Purified Porcine Brain Tubulin; from tissue; host or cells: porcine brain
T1 sequence (P02554 whole entry): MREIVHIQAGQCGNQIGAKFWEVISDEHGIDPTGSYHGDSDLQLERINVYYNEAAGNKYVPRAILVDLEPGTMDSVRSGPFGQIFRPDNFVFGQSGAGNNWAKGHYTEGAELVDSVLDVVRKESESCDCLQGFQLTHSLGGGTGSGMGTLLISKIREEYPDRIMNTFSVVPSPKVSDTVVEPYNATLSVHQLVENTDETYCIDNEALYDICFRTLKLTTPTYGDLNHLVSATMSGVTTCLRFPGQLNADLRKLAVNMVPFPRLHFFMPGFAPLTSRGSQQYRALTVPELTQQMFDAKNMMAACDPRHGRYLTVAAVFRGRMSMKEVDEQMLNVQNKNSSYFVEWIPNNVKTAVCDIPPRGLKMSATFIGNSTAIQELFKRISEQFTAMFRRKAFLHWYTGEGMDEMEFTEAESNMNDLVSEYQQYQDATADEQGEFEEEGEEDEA
T1 sequence (P02550 whole entry partner): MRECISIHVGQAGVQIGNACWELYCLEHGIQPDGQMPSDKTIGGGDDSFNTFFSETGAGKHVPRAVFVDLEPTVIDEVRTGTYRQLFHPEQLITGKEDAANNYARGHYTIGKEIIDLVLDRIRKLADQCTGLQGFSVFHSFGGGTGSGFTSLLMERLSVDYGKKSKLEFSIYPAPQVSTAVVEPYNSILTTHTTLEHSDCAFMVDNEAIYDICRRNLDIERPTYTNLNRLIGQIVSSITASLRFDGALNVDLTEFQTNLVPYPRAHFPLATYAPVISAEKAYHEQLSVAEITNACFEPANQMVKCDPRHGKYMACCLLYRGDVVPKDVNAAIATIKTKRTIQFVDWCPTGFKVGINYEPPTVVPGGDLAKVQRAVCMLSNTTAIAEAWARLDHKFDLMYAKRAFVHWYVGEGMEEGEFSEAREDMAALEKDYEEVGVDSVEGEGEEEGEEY

[5] = Homo sapiens, MDA-MB-435, Table 48, 48 hr exposure, SRB assay
[6] = Homo sapiens, MDA-MB-435, Table 52
[7] = Homo sapiens, HeLa, Table 48, 48 hr exposure, read-out: HeLa Anti-Proliferative Activity, IC50
[8] = Homo sapiens, HeLa, Table 49, parental line, 48 hr, read-out: HeLa IC50
[9] = Homo sapiens, SK-OV-3, Table 48, 48 hr exposure, read-out: SK-OV-3 Anti-Proliferative Activity, IC50
[10] = Homo sapiens, SK-OV-3, Table 49, parental line, 48 hr, read-out: SK-OV-3 IC50
[11] = Rattus norvegicus, A10, Table 50, concentration causing approximately 50% loss of interphase microtubules

| Compound | IC50 [1, 5] [nM] | IC50 [1, 6] [nM] | IC50 [2, 7] [nM] | IC50 [3, 9] [nM] | IC50 (HeLa WT-β-III cells; Homo sapiens, HeLa) [nM] | IC50 (SK-OV-3-MDR-1-6/6 cells; Homo sapiens, SK-OV-3) [nM] | EC50 (A-10 cells; [11]) [nM] | melting point [°C] | Rr (β-III) (HeLa WT-β-III cells) | Rr (Pgp) (SK-OV-3-MDR-1-6/6 cells) | IC50 [2, 8] [nM] | IC50 [3, 10] [nM] | also measured |
| --- | --- | --- | --- | --- | --- | --- | --- | --- | --- | --- | --- | --- | --- |
| CCOC(=O)c1[nH]c(C=NO)c(-c2ccc(OC)c(OC)c2OC)c1Br (mixture of isomers) [Example 10a, Cis/Trans-3-Bromo-4-(2,3,4-trimethoxyphenyl)-5-oximino-1H-pyrrole 2-carboxylic acid ethyl ester] |  |  |  |  |  |  |  |  | 0.9 | 1.2 |  |  | IC50 ([1]; Table 48, 48 hr exposure, SRB assay): 2.7 ± 0.2 nM; IC50 ([1]; Table 52): 2.7 ± 0.2 nM; IC50 ([2]; Table 48, 48 hr exposure, read-out: HeLa Anti-Proliferative Activity, IC50): 5 ± 0.3 nM; IC50 ([2]; Table 49, parental line, 48 hr, read-out: HeLa IC50): 5 ± 0.3 nM; IC50 ([3]; Table 48, 48 hr exposure, read-out: SK-OV-3 Anti-Proliferative Activity, IC50): 5.3 ± 0.2 nM; IC50 ([3]; Table 49, parental line, 48 hr, read-out: SK-OV-3 IC50): 5.3 ± 0.2 nM; IC50 (HeLa WT-β-III cells): 4.1 ± 1 nM; IC50 (SK-OV-3-MDR-1-6/6 cells): 6.6 ± 1.2 nM; EC50 (A-10 cells; Table 50, concentration causing approximately 50% loss of interphase microtubules): 9.8 nM; EC50 (A-10 cells; Table 52): 8.9 nM; % Inhibition of Tubulin Polymerization ([4]; compound at 2 μM): 75% |
| CCCNC=C1NC(C(=O)OCC)C(Br)=C1c1ccc(OC)c(OC)c1OC (centres unmarked) [Example 17, 3-Bromo-5-(N-Propylaminomethylene)-4-(2,3,4-trimethoxyphenyl)-1H-pyrrole 2-carboxylic acid ethyl ester] | 2630 | 2630 | 2450 | 3020 | 2010 | 3570 | 4900 | 143 to 145 | 0.8 | 1.2 | 2450 | 3020 |  |
| CCOC(=O)c1[nH]c(Br)c(-c2ccc(OC)c(OC)c2OC)c1Br [Example 22, 3,5-Dibromo-4-(2,3,4-trimethoxyphenyl)-1H-pyrrole-2-carboxylic acid ethyl ester] | 10.4 ± 0.5 |  | 12.9 ± 0.8 | 15.2 ± 0.8 | 15.7 ± 0.2 | 10.6 ± 0.3 | 34.5 |  | 1.2 | 0.7 | 12.9 ± 0.8 | 15.2 ± 0.8 | inhibition at 1 µM ([4]; compound at 1 μM): 53% |
| CCOC(=O)c1[nH]c(Cl)c(-c2ccc(OC)c(OC)c2OC)c1Cl [Example 23, 3,5-Dichloro-4-(2,3,4-Trimethoxyphenyl)-1H-pyrrole-2-carboxylic acid ethyl ester] | 116 ± 4.3 |  | 131 ± 8 | 211 | 137 | 231 ± 118 | 1060 | 151 to 153 | 1.0 | 1.1 | 131 ± 8 | 211 |  |

Continued, in another order:

| IC50 [1, 5] [nM] | IC50 [1, 6] [nM] | IC50 [2, 7] [nM] | IC50 [3, 9] [nM] | IC50 (HeLa WT-β-III cells; Homo sapiens, HeLa) [nM] | IC50 (SK-OV-3-MDR-1-6/6 cells; Homo sapiens, SK-OV-3) [nM] | EC50 (A-10 cells; [11]) [nM] | melting point [°C] | Compound | Rr (β-III) (HeLa WT-β-III cells) | Rr (Pgp) (SK-OV-3-MDR-1-6/6 cells) | IC50 [2, 8] [nM] | IC50 [3, 10] [nM] | also measured |
| --- | --- | --- | --- | --- | --- | --- | --- | --- | --- | --- | --- | --- | --- |
| 64 ± 8.5 | 64 ± 8.5 | 43.5 ± 1.7 | 67.8 ± 16.2 | 106 ± 6.6 | 76 ± 22.9 | 107 | 193 to 195 | CCOC(=O)c1[nH]c(C=O)c(-c2ccc(OC)c(OC)c2OC)c1Cl [Example 3, 3-Chloro-4-(2,3,4-trimethoxyphenyl)-5-formyl-1H-pyrrole 2-carboxylic acid ethyl ester] | 2.4 | 1.1 | 43.5 ± 1.7 | 67.8 ± 16.2 |  |
| 76 ± 0.6 | 76 ± 0.6 | 39.9 ± 3.1 | 66.9 ± 5.8 | 100 ± 2 | 87 ± 23.6 | 129 | 126 to 128 | CCOC(=O)c1[nH]c(C=O)c(-c2ccc(OC)c(OC)c2OC)c1I [Example 4, 3-Iodo-4-(2,3,4-trimethoxyphenyl)-5-formyl-1H-pyrrole 2-carboxylic acid ethyl ester] | 2.5 | 1.3 | 39.9 ± 3.1 | 66.9 ± 5.8 |  |
| 15.8 ± 0.9 | 15.8 ± 0.9 | 19.5 ± 0.6 | 23.1 ± 1.8 | 15.6 ± 0.4 | 22.4 ± 0.9 | 36 | 176 to 178 | CCOC(=O)c1[nH]c(CN)c(-c2ccc(OC)c(OC)c2OC)c1Br [Example 13, 5-(Aminomethylene)-3-Bromo-4-(2,3,4-trimethoxyphenyl)-1H-pyrrole 2-carboxylic acid ethyl ester] | 0.8 | 1.0 | 19.5 ± 0.6 | 23.1 ± 1.8 |  |
| 13 ± 0.4 | 13 ± 0.4 | 15 ± 0.5 | 27.8 ± 1.3 | 12.3 ± 0.3 | 23.6 ± 1 | 35 | 143 to 145 | CCOC(=O)c1[nH]c(CN)c(-c2ccc(OC)c(OC)c2OC)c1Cl [Example 14] | 0.8 | 0.8 | 15 ± 0.5 | 27.8 ± 1.3 |  |
| 12.6 ± 0.4 | 12.6 ± 0.4 | 14.3 ± 0.8 | 20.7 ± 1.9 | 11.2 ± 0.4 | 19 ± 1 | 31 | 166 to 168 | CCCNC=C1NC(C(=O)OCC)C(Cl)=C1c1ccc(OC)c(OC)c1OC (centres unmarked) [Example 18, 3-Chloro-5-(N-Propylaminomethylene)-4-(2,3,4-Trimethoxyphenyl)-1H-pyrrole 2-carboxylic acid ethyl ester] | 0.8 | 0.9 | 14.3 ± 0.8 | 20.7 ± 1.9 |  |
